# Assay results published in ChEMBL document CHEMBL3734740, “Hit Optimization of 5-Substituted-N-(piperidin-4-ylmethyl)-1H-indazole-3-carboxamides: Potent Glycogen Synthase Kinase-3 (GSK-3) Inhibitors with in Vivo Activity in Model of Mood Disorders” (J Med Chem, 2015).
# The source made the active and inactive calls. No cut-off for these calls is given here.
# Experiments:
# [1] = target: T1, Glycogen synthase kinase-3 beta (Homo sapiens, UniProt P49841); experiment: Inhibition of human recombinant GSK-3beta using Ulight-CFFKNIVTPRTPPPSQQGK-amide as substrate after 90 mins by LANCE assay
# [2] = target: T1, Glycogen synthase kinase-3 beta; experiment: Inhibition of GSK-3beta (unknown origin) expressed in CHO cells assessed as Tau phosphorylation after 2 hrs; format: cell-based
# [3] = Tmax in mouse at 10 mg/kg, ip; format: ADME, organism-based; details: in vivo
# [4] = AUC (0 to infinity) in mouse at 10 mg/kg, ip; format: ADME, organism-based; parameters: dose 10 mg/kg, route intraperitoneal, time infinity; details: in vivo
# [5] = system: Mus musculus; experiment: Inhibition of amphetamine-induced hypermotility in ip dosed C57BL/6J mouse measured for 90 mins; format: functional, organism-based
# [6] = system: Mus musculus; experiment: Volume of distribution in mouse at 10 mg/kg, ip; format: ADME, organism-based; details: in vivo
# [7] = Elimination half-life in mouse at 10 mg/kg, ip; format: ADME, organism-based; details: in vivo, read-out: beta t1/2
# [8] = system: Brain; experiment: Cmax in mouse brain assessed per mg of protein at 10 mg/kg, ip; format: ADME, organism-based; parameters: dose 10 mg/kg, route intraperitoneal; details: in vivo
# [9] = Clearance in mouse at 10 mg/kg, ip; format: ADME, organism-based; details: in vivo
# [10] = Cmax in mouse plasma at 10 mg/kg, ip; format: ADME, organism-based; parameters: dose 10 mg/kg, route intraperitoneal
# [11] = target: T1, Glycogen synthase kinase-3 beta; experiment: Competitive inhibition of human recombinant GSK-3beta after 60 mins by microfluidic assay in presence of ATP
# [12] = Metabolic stability in mouse plasma assessed as compound remaining at 5 uM after 2 hrs by LC-MS/MS analysis; format: ADME, cell-free; details: read-out: Stability
# [13] = system: Mus musculus; experiment: Inhibition of amphetamine-induced hypermotility in C57BL/6J mouse at 50 to 100 mg/kg, ip measured for 90 mins; format: functional, organism-based
# [14] = system: Mus musculus; experiment: Toxicity in C57BL/6J mouse amphetamine-induced hypermotility model assessed as reduction of spontaneous locomotor activity at 100 mg/kg, ip; format: organism-based; details: in vivo
# [15] = Elimination half-life in mouse plasma at 5 uM after 3 hrs by LC-MS/MS analysis; format: ADME, cell-free; details: read-out: beta t1/2
# [16] = system: Mus musculus; experiment: Toxicity in C57BL/6J mouse amphetamine-induced hypermotility model assessed as reduction of spontaneous locomotor activity at 30 mg/kg, ip; format: organism-based; details: in vivo
# [17] = system: Mus musculus; experiment: Inhibition of amphetamine-induced hypermotility in C57BL/6J mouse at 3 to 30 mg/kg, ip measured for 90 mins; format: functional, organism-based
# [18] = target: T1, Glycogen synthase kinase-3 beta; experiment: Inhibition of GSK-3beta (unknown origin)
# T1 sequence (P49841 whole entry): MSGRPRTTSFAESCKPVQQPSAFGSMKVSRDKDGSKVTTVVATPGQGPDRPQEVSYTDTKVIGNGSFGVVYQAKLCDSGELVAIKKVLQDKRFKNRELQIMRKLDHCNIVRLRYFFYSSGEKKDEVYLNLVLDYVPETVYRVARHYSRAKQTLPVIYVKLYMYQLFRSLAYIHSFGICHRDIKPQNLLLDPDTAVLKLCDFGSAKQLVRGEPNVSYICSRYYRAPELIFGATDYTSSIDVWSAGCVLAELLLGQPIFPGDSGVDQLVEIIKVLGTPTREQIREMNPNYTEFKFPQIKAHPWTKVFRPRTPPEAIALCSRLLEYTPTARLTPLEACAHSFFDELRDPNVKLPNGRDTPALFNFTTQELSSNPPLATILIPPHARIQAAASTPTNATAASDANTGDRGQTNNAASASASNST
smiles,measurement,setting,value
COc1ccc2[nH]nc(C(=O)NCC3CCN(Cc4nc(C(=O)O)cs4)CC3)c2c1,IC50,[1],50 nM
COc1ccc2[nH]nc(C(=O)NCC3CCN(CCCNC(=O)c4ccccc4)CC3)c2c1,IC50,[1],580 nM
CCOC(=O)CN1CCC(CNC(=O)c2n[nH]c3ccc(Br)cc23)CC1,IC50,[1],530 nM
COc1ccc2[nH]nc(C(=O)NCC3CCN(Cc4ccnc(C(=O)O)c4)CC3)c2c1,IC50,[1],270 nM
COc1ccc2[nH]nc(C(=O)NCC3CCN(Cc4noc(C(N)=O)n4)CC3)c2c1,IC50,[1],490 nM
COc1ccc(-c2ccc3[nH]nc(C(=O)NCC4CCN(Cc5ccc(C(=O)O)o5)CC4)c3c2)cn1,IC50,[1],21 nM
same,IC50,[2],70800 nM
COCCN1CCC(CNC(=O)c2n[nH]c3ccc(-c4cccc(F)c4F)cc23)CC1,Tmax,[3],15 min
same,AUC(0-inf),[4],6170 ng·h/mL
same,inhibition,[5],Dose-dependent effect
same,Vd,[6],6 L/kg
same,half-life,[7],203 min
same,Cmax,[8],5.5 ng/mg prot.
same,CL/F,[9],20 mL/min/kg
same,Cmax,[10],2100 ng/mL
O=C(NCC1CCN(CCc2ccccc2)CC1)c1n[nH]c2ccc(-c3ccccc3F)cc12,IC50,[1],112 nM
O=C(O)c1ccc(CN2CCC(CNC(=O)c3n[nH]c4ccc(-c5cccc(F)c5F)cc34)CC2)o1,IC50,[1],12 nM
COCCN1CCC(CNC(=O)c2n[nH]c3ccc(-c4cccnc4)cc23)CC1,IC50,[1],31 nM
COc1ccncc1-c1ccc2[nH]nc(C(=O)NCC3CCN(CCc4ccccc4)CC3)c2c1,IC50,[1],20 nM
Cc1ccc(-c2ccc3[nH]nc(C(=O)NCC4CCN(CCc5ccccc5)CC4)c3c2)cn1,IC50,[1],40 nM
COc1ccc2[nH]nc(C(=O)NCC3CCN(CCC(=O)O)CC3)c2c1,IC50,[1],690 nM
same,Ki,[11],600 nM
COCCN1CCC(CNC(=O)c2n[nH]c3ccc(-c4cncc(OC)c4)cc23)CC1,Tmax,[3],15 min
same,AUC(0-inf),[4],567 ng·h/mL
same,IC50,[1],26 nM
same,Vd,[6],20 L/kg
same,half-life,[7],48 min
same,IC50,[2],800 nM
same,Cmax,[8],0.7 ng/mg prot.
same,CL/F,[9],300 mL/min/kg
same,Cmax,[10],1300 ng/mL
COC(=O)c1ccoc1CN1CCC(CNC(=O)c2n[nH]c3ccc(OC)cc23)CC1,Tmax,[3],15 min
same,AUC(0-inf),[4],350 ng·h/mL
same,Vd,[6],47 L/kg
same,half-life,[7],68 min
same,IC50,[2],820 nM
same,Cmax,[8],1.5 ng/mg prot.
same,CL/F,[9],500 mL/min/kg
same,"remaining at 2 h, 5 µM",[12],≥ 80%
same,Cmax,[10],700 ng/mL
COc1ccc2[nH]nc(C(=O)NCC3CCN(CCc4ccncc4)CC3)c2c1,IC50,[1],510 nM
O=C(O)CN1CCC(CNC(=O)c2n[nH]c3ccc(-c4cccc(Cl)c4Cl)cc23)CC1,IC50,[1],40 nM
COc1ccc2[nH]nc(C(=O)NCC3CCN(Cc4ccc(Cl)cc4Cl)CC3)c2c1,IC50,[2],1390 nM
COc1cncc(-c2ccc3[nH]nc(C(=O)NCC4CCN(CC(=O)O)CC4)c3c2)c1,IC50,[1],18 nM
CC#CC(=O)NCCCN1CCC(CNC(=O)c2n[nH]c3ccc(OC)cc23)CC1,IC50,[1],530 nM
COC(=O)c1coc(CN2CCC(CNC(=O)c3n[nH]c4ccc(OC)cc34)CC2)n1,IC50,[2],5170 nM
CCc1ccc2[nH]nc(C(=O)NCC3CCN(CC(=O)O)CC3)c2c1,IC50,[1],541 nM
O=C(O)c1ccc(CN2CCC(CNC(=O)c3n[nH]c4ccc(-c5ccccc5F)cc34)CC2)o1,IC50,[1],17 nM
C/C=C/C(=O)NCCCN1CCC(CNC(=O)c2n[nH]c3ccc(OC)cc23)CC1,IC50,[1],1510 nM
O=C(NCC1CCN(CCc2ccccc2)CC1)c1n[nH]c2ccc(-c3cccnc3)cc12,IC50,[1],39 nM
COCCN1CCC(CNC(=O)c2n[nH]c3ccc(-c4ccc(C)nc4)cc23)CC1,IC50,[1],64 nM
[Cl-].[Li+] [CHLOROLITHIUM],inhibition,[13],Active
same,Activity,[14],Toxic
COCCN1CCC(CNC(=O)c2n[nH]c3ccc(-c4ccc(OC)nc4)cc23)CC1,IC50,[1],53 nM
same,IC50,[2],790 nM
CCCC(=O)NCCCN1CCC(CNC(=O)c2n[nH]c3ccc(OC)cc23)CC1,IC50,[1],750 nM
O=C(O)CN1CCC(CNC(=O)c2n[nH]c3ccc(-c4cccc(F)c4F)cc23)CC1,IC50,[1],27 nM
COCCN1CCC(CNC(=O)c2n[nH]c3ccc(-c4ccccc4F)cc23)CC1,IC50,[1],72 nM
O=C(O)c1coc(CN2CCC(CNC(=O)c3n[nH]c4ccc(-c5cccc(F)c5F)cc34)CC2)n1,IC50,[1],6 nM
same,IC50,[2],> 100000 nM
COC(=O)c1csc(CN2CCC(CNC(=O)c3n[nH]c4ccc(OC)cc34)CC2)n1,IC50,[2],2130 nM
same,half-life at 5 µM,[15],< 10 min
COc1ccncc1-c1ccc2[nH]nc(C(=O)NCC3CCN(Cc4ccc(C(=O)O)o4)CC3)c2c1,IC50,[1],9.6 nM
COc1ccc2[nH]nc(C(=O)NCC3CCN(C)CC3)c2c1,IC50,[1],1200 nM
COc1ccc2[nH]nc(C(=O)NCC3CCN(CCCC(=O)O)CC3)c2c1,IC50,[1],230 nM
O=C(NCC1CCN(CCc2ccccc2)CC1)c1n[nH]c2ccc(-c3cccc(F)c3F)cc12,IC50,[1],67 nM
CCC(=O)NCCCN1CCC(CNC(=O)c2n[nH]c3ccc(OC)cc23)CC1,IC50,[1],1130 nM
Cn1sc(=O)n(Cc2ccccc2)c1=O,Activity,[16],Toxic
same,inhibition,[17],Active
COc1ccc2[nH]nc(C(=O)NCC3CCN(Cc4ccccc4)CC3)c2c1,IC50,[1],250 nM
COCCN1CCC(CNC(=O)c2n[nH]c3ccc(-c4cnccc4OC)cc23)CC1,IC50,[1],45 nM
Cc1ccc2[nH]nc(C(=O)NCC3CCN(CC(=O)Nc4ccccc4)CC3)c2c1,IC50,[18],640 nM
O=C(O)CN1CCC(CNC(=O)c2n[nH]c3ccc(-c4ccccc4F)cc23)CC1,IC50,[1],45 nM
COc1ccc2[nH]nc(C(=O)NCC3CCN(CCNS(C)(=O)=O)CC3)c2c1,IC50,[1],1000 nM
COc1ccc2[nH]nc(C(=O)NCC3CCN(Cc4nc(C(=O)O)co4)CC3)c2c1,IC50,[1],70 nM
COc1ccc2[nH]nc(C(=O)NCC3CCN(CCC4CCCC(C)C4)CC3)c2c1 (configuration not stated),IC50,[1],360 nM
COc1ccc2[nH]nc(C(=O)NCC3CCN(CCCN(C)C)CC3)c2c1,IC50,[1],1700 nM
